Measured values taken from US9023812B2, “Neuroprotective ganglioside compositions for use in treating huntington's disease” (The Governors of the University of Alberta, priority 2009, dated 2015).

Assays:
[1] = test system: YAC128 mice; experiment: Motor behavior (rotarod and horizontal ladder task) during chronic intraventricular GM1 infusion in YAC128 mice
Procedure: (§1) The pump infused a solution of 5.6 mg GM1/ml in artificial cerebrospinal fluid (CSF) (or CSF only in control groups) into the brain ventricle at constant rate (0.25 μl/h, corresponding to 1.4 μg GM1/h or 33.6 μg GM1/day) for 28 days. […] Mice were let recovery for a week, after which motor behavior tests were performed on weekly bases.
(§2) Motor behavior was evaluated with two sensitive tests that are considered the gold-standard for analysis of HD motor deficit: rotarod and horizontal ladder test (Ferrante, R. J. (2009)) To avoid that stress and anxiety would affect motor performance, mice were acclimatized for two days to training room, instruments and tasks to perform, before measuring the actual performance in each specific task. […] Latency to fall off the rotarod in each of these sessions was measured, averaged and compared across groups. For the horizontal ladder walking test, a task that assesses loss and recovery of sensori-motor functions 16, mice were recorded with a videocamera as they walked spontaneously across the ladder. […]
(§3) The pump infused a solution of 3.6 mg GM1/ml in artificial CSF (or CSF only in control groups) into the brain ventricle at constant rate (0.25 μl/h) for 4 weeks. The amount of GM1 infused was calculated in order to achieve 50 μM final concentration in the mouse CSF. […]

[2] = test system: STHdh^111Q/111Q cells; format: cell-based, mouse; details: 50 μM GM1, HD cells, FIG. 5C
[3] = test system: Htt phosphorylation at Ser13 and Ser16; experiment: Htt phosphorylation in cerebral cortex homogenate of GM1- and CSF-infused mice (immunoblotting, pSer13Ser16 antibody); format: in vivo, mouse; details: YAC128 and WT littermates infused for 28 days
Procedure: At the end of the GM1 infusion protocol (28 days after peristaltic pump implantation), mice were euthanized. Brain cortices were dissected and homogenized in 50 mM Tris, 1% NP40, 1 mM EDTA, 10 mM NaF, 1 mM Na2VO4 and 1:100 protease inhibitor cocktail (SIGMA-Aldrich). […] Alexa680-conjugated secondary antibody were used at 1:1,000 dilution in Odyssey buffer. Imaging and analysis were performed using and Odyssey Infrared System (LiCor).
Subsequent to the experimental protocol on animals described above, the mouse brains were dissected and homogenized to examine Htt phosphorylation at Ser13 and Ser16.
In FIG. 20, YAC128 mice and WT littermates infused with CSF (vehicle) or GM1 for 28 days were sacrificed and the amount of phospho-Htt in the same amount of cerebral cortex homogenate was detected by immunoblotting with a pSer13Ser16 specific antibody.

[4] = test system: STHdh^111Q/111Q cells; experiment: Induction and measurement of apoptosis (annexin V binding / active caspase-3, FACS) in HD knock-in striatal cells; details: for protection from apoptosis (annexin V binding, caspase 3 activation): 0.1-1-5-10-20 μM Liga20, knock-in striatal cells WT or HD, FIG. 13
Procedure: Conditionally-immortalized rat striatal ST14A cells and ST14A cells expressing an N-terminal fragment of mHtt containing 120 glutamines (N548-120Q) were kindly provided by Dr. E. Cattaneo (University of Milan, Italy) and maintained in culture at the permissive temperature (33° C.) as previously reported (Rigamonti et al., 2001). Conditionally-immortalized mouse striatal knock-in cells expressing endogenous levels of wild-type (STHdh^Q7/Q7) or mHtt (STHdh^Q111/Q111) were a gift from Dr. M. E. MacDonald (Massachusetts General Hospital, Boston, Mass., USA) and were maintained as previously described (Trettel et al., 2000).
In order to induce apoptosis immortalized cells were incubated at 39° C. […] For apoptosis detection, at the end of each treatment cells were collected, washed with PBS and incubated with PE-conjugated annexin V (BD Biosciences) according to the manufacturer's instructions. For the simultaneous detection of active caspase-3 and annexin V binding, cells were first labeled with annexin V as indicated above, then fixed in 4% paraformaldehyde and permeabilized with 0.3% saponin in PBS containing 4% donkey serum.
GM1 (Alexis) at the indicated concentrations was added to the cells in serum-free medium at the time when cells were shifted at 39° C. to induce apoptosis.
K252a (200 nM, Calbiochem) was used to inhibit TrK receptor-mediated signaling. […] Both inhibitors were administered to the cells 2 hours before induction of apoptosis and administration of GM1.

[5] = test system: wild-type mice; experiment: Motor behavior (rotarod and horizontal ladder task) during chronic intraventricular GM1 infusion in wild-type littermates; details: intraventricular infusion for 28 days
Procedure: as §1, §2, §3

[6] = test system: AKT; experiment: AKT activation (phospho-AKT/AKT ratio) by immunoblotting in striatal knock-in cells; format: cell-based, mouse; details: for phospho-AKT/AKT ratio: 7 minutes and 6 hours after addition of GM1, serum-free medium at 39° C.
Procedure: FIG. 7—GM1 protective effect on striatal cells is partially mediated by AKT activation. A) Akt phosphorylation was measured 7 minutes and 6 hours after addition of GM1 in serum-free medium and incubation at 39° C. to induce cell death. Analysis of phospho-AKT/AKT ratio, indicative of AKT activation, was performed by densitometric analysis of immunoblots in three independent experiments. In each experiment, the pospho-AKT/AKT ratio measured in wild-type untreated cells (control) was arbitrarily set to 100% to which HD and GM1-treated samples were compared. Mean values±SD and representative immunoblots are shown. […] The percentage of apoptotic cells was measured by annexin V binding. Data are the mean±SD of 3 experiments, each performed in triplicate. 7/7, STHdh^7Q/7Q; 111/111, STHdh^111Q/111Q; *, p<0.05; **, p<0.001; ***, p<0.0001
Cells were scraped in 10 mM Tris-HCl, pH 7.4, containing 1% NP40, 10 mM NaF, 1 mM Na2VO4 and 1:100 protease inhibitor cocktail (SIGMA-Aldrich, St. Louis, Mo., USA) and lysed by sonication followed by incubation on ice for 30 minutes. Cell debris were removed by centrifugation at 15,000×g for 15 minutes. Protein concentration in the supernatant was measured by BCA assay (Pierce). Thirty μg of proteins were resolved on 10% SDS-PAGE and transferred to nitrocellulose membranes (Bio-Rad Laboratories, Hercules, Calif., USA). Membranes were blocked with 5% non-fat milk in TBS-T (50 mM Tris-HCl, 150 mM NaCl, pH 7.4, 0.1% Tween 20) for 1 hour and then probed overnight with primary antibodies: anti-phospho-AKT (Ser473) (1:500), anti-AKT (1:500) (both from Cell Signaling), Abcam). HRP-conjugated secondary antibodies were used at 1:3,000 dilution (Bio-Rad Laboratories, Hercules, Calif., USA). Protein bands were detected by ECL Plus (Amersham Biosciences) and analyzed with Quantity One® software (Bio-Rad Laboratories, Hercules, Calif., USA).

[7] = test system: STHdh^7Q/7Q cells; experiment: Induction and measurement of apoptosis (annexin V binding / active caspase-3, FACS) in wild-type knock-in striatal cells; format: cell-based, mouse
Procedure: To inhibit ganglioside synthesis, wild-type cells were incubated for 3 days in medium containing 10 μM 1-phenyl-2-palmitoylamino-3-morpholino-1-propanol (PPMP, Matreya, Pleasant Gap, Pa., USA). Cells were then washed two times with PBS and incubated for 12 hours at 39° C. in serum-free medium to induce apoptosis.

[8] = test system: mHtt; experiment: Huntingtin immunoprecipitation and immunoblotting with anti-phospho-Ser antibody; format: cell-based, mouse; details: STHdh^111Q/111Q cells, 50 μM GM1 for 5 minutes
[9] = cited from earlier work
[10] = test system: STHdh^7Q/7Q cells; format: cell-based, mouse
[11] = Wu et al., 2004; cited from earlier work
[12] = test system: Htt phosphorylation at Ser13 and S16; experiment: PPMP treatment and immunoblotting of total and phospho-Htt in striatal knock-in cells; format: cell-based, mouse; details: 10 μM PPMP for 3 days
Procedure: Knock-in striatal cells expressing wild-type Htt (7/7) or mHtt (111/111) (Trettel, F., et al. (2000)) were incubated for 3 days in medium containing 10 μM 1-phenyl-2-palmitoylamino-3-morpholino-1-propanol (PPMP, Matreya, Pleasant Gap, Pa., USA) to inhibit ganglioside synthesis. Cells were then washed two times with PBS and lysed in 50 mM Tris, 1% NP-40, 1 mM EDTA, 10 mM NaF, 1 mM Na2VO4 and 1:100 protease inhibitor cocktail (SIGMA-Aldrich). […] HRP-conjugated secondary antibodies were used at 1:3,000 dilution (Bio-Rad Laboratories, Hercules, Calif., USA). Protein bands were detected by ECL Plus and quantitated with Quantity One® software (Bio-Rad Laboratories, Hercules, Calif., USA).
In these experiments, synthesis of gangliosides was inhibited in striatal knock-in cells with PPMP, as above. Levels of total and phospho-Htt were detected in total cell lysates using immunoblotting (Panel A) with mAb2166 and N17pS13pS16 antibody, respectively. Panel B is a graph is the densitometric analysis of the immunoblot show in Panel A.

## ganglioside GM1
[1]; after 13 days of GM1 infusion
  motor behavior compared with wild-type mice: indistinguishable from wild-type mice
[1]; intraventricular infusion 0.25 μl/h for 28 days, 3 mice per group
  motor behavior (rotarod, horizontal ladder task) versus CSF-infused HD mice: performed significantly better than HD control mice infused with CSF
[2]
  plasma membrane GM1 levels after GM1 administration: complete restoration of GM1 levels
[3]
  phosphorylation of Htt at Ser13 and Ser16 in cerebral cortex: increase in the phosphorylation of Htt at these residues
[4]; 50 μM, serum deprivation at 39° C.
  susceptibility of HD cells to apoptosis compared with wild-type cells: restored normal susceptibility to apoptosis in HD cells
[4]; 50 μM, serum deprivation at 39° C., HD cells
  protection from apoptosis (annexin V binding, active caspase-3): protected both wild-type and HD cells from apoptosis
[4]; knock-in striatal cells (7/7 and 111/111), 6 hours in serum-free medium at 39° C., FIG. 9
  dose-dependency of GM1 anti-apoptotic action: dose-dependent
[5]
  behavioral differences GM1 versus CSF infusion: No behavioral differences were noted
[6]; STHdh^7Q/7Q cells
  phospho-AKT/AKT ratio: increased the phospho-AKT/AKT ratio
[6]; STHdh^111Q/111Q cells after GM1 administration
  levels of active (phospho) AKT compared with wild-type: restored to normal
[6]; STHdh^111Q/111Q cells
  phospho-AKT/AKT ratio: increased the phospho-AKT/AKT ratio
[7]; 50 μM, serum deprivation at 39° C., wild-type cells
  protection from apoptosis (annexin V binding, active caspase-3): protected both wild-type and HD cells from apoptosis
[7]; treated wild-type cells, 50 μM GM1, apoptotic conditions
  cell survival: cell survival was also further augmented
[7]; wild-type cells pre-treated with 10 μM PPMP for 3 days
  effect of GM1 on PPMP-induced susceptibility to apoptosis: abolished PPMP effects
[8]
  mHtt phosphorylation (phospho-Ser/mHtt): increased mHtt phosphorylation
[9]; Alter, 1998
  frequency of possible adverse effects such as Guillain-Barre' syndrome (GBS): rare
[9]; patients with stroke, Parkinson's disease, spinal cord injury
  safety in clinical trials: relatively safe to use
[10]; 50 μM GM1, treated wild-type cells, FIG. 5C
  GM1 content after GM1 administration: further increase of GM1 content above their normal levels

## LIGA-20
[11]
  potency relative to GM1: at least an order of magnitude more potent than GM1
[4]
  protection from apoptosis (annexin V binding, caspase 3 activation): not effective in protecting striatal cells
[4]; listed as Liga20
  protection from apoptosis (annexin V binding, caspase 3 activation): not protective in a genetic cell model of HD

## COC(=O)[C@@]1(O)C[C@H]2O[C@]1(C)n1c3ccccc3c3c4c(c5c6ccccc6n2c5c31)C(=O)NC4 [K252a]
[4]; 200 nM K252a, 2 hours pre-incubation before GM1 and apoptotic stress, 7/7 and 111/111 cells, FIG. 10
  effect of pan-Trk inhibitor on GM1 protective activity: GM1 protective activity was still fully preserved

## CCCCCCCCCCCCCCCC(=O)NC(CN1CCOCC1)C(O)c1ccccc1 (stereo not shown) [PPMP, 1-phenyl-2-palmitoylamino-3-morpholino-1-propanol]
[12]
  Htt phosphorylation at Ser13 and S16 after inhibition of ganglioside synthesis: decreases levels of phosphorylation at the same amino acid residues
[7]; 10 μM PPMP for 3 days, then 12 hours serum-free medium at 39° C., FIG. 6B
  cell susceptibility to apoptosis after inhibition of ganglioside synthesis: increased STHdh^7Q/7Q cell susceptibility to apoptosis to the levels observed in STHdh^111Q/111Q cells
[10]; 10 μM PPMP for 3 days, wild-type cells, FIG. 6A
  plasma membrane GM1 levels after inhibition of ganglioside synthesis: reduce GM1 levels to the amount observed in STHdh^111Q/111Q cells
